{
  "source": "patent US11229596B2",
  "about": "“Preservative free pharmaceutical ophthalmic compositions” (PHARMATHEN S.A., priority 2016, dated 2022)",
  "origin": "cited, not measured here",
  "key": {"intraocular pressure": {"tested_on": "intraocular pressure", "settings": "in man"}},
  "note": "Counter-ions that a name gives are not always drawn. Like-named read-outs stand apart in the source and are kept apart here.",
  "data": [
    {"smiles": "CC(C)OC(=O)CCC/C=C\\C[C@@H]1[C@@H](CC[C@@H](O)CCc2ccccc2)[C@H](O)C[C@@H]1O", "note": "[Latanoprost]", "values": [
      {"measurement": "Duration of pressure reduction", "setting": "intraocular pressure", "result": "at least 24 hours"},
      {"measurement": "Start of reduction of the intraocular pressure after administration", "setting": "intraocular pressure", "result": "three to four"},
      {"measurement": "Time to maximum effect on intraocular pressure", "setting": "intraocular pressure", "result": "eight to twelve"},
      {"measurement": "Solubility", "setting": "in acetonitrile", "result": "very soluble"},
      {"measurement": "Solubility", "setting": "in ethanol", "result": "freely soluble"},
      {"measurement": "Solubility", "setting": "in water", "result": "practically insoluble"}
    ]},
    {"smiles": "CC(C)(C)NC[C@H](O)COc1nsnc1N1CCOCC1", "note": "[Timolol maleate]", "values": [
      {"measurement": "Solubility", "setting": "in chloroform", "result": "sparingly soluble"},
      {"measurement": "Solubility", "setting": "in cyclohexane", "result": "insoluble"},
      {"measurement": "Solubility", "setting": "in ethanol", "result": "soluble"},
      {"measurement": "Solubility", "setting": "in ether", "result": "insoluble"},
      {"measurement": "Solubility", "setting": "in methanol", "result": "soluble"},
      {"measurement": "Solubility", "setting": "in propylene glycol", "result": "sparingly soluble"},
      {"measurement": "Solubility", "setting": "in water", "result": "soluble"}
    ]}
  ]
}
